Source: patent publication US6130239A, “4-Alkenyl- and 4-alkynyloxindoles” (Hoffmann-La Roche Inc., priority 1999, dated 2000)
Counter-ions that a name gives are not always drawn.

Each compound was assayed against T1, Cyclin E/CDK2 (Homo sapiens, UniProt P24941) (assay: CDK2 FlashPlate Assay (inhibition of Rb phosphorylation by Cyclin E/CDK2)). Conditions: Table IA; recombinant human Cyclin E/CDK2, Rb substrate, 25 minutes room temperature.
T1 construct: made in house; host or cells: insect cells
Format: biochemical

| IC50 [µM] | Structure (SMILES) |
| --- | --- |
| < 4 | COc1cc[nH]c1/C=C1\C(=O)Nc2cccc(C#CCCC(N)=O)c21 [J, (Z)-5-[2,3-Dihydro-3-[(3-methoxy-1H-pyrrol-2-yl)methylene]-2-oxo-1H-indol-4-yl]-4-pentynamide] |
| < 4 | CCCC(C)(O)C#Cc1cccc2c1/C(=C/c1[nH]ccc1OC)C(=O)N2 (racemic) [N, rac-(Z)-1,3-Dihydro-4-(3-hydroxy-3-methyl-1-hexynyl)-3-[(3-methoxy-1H-pyrrol-2-yl)methylene]-2H-indol-2-one] |
| < 4 | COc1cc[nH]c1/C=C1\C(=O)Nc2cccc(C#CCCCC(=O)O)c21 [G, (Z)-6-[2,3-Dihydro-3-[(3-methoxy-1H-pyrrol-2-yl)methylene]-2-oxo-1H-indol-4-yl]-5-hexynoic acid] |
| < 4 | CCCCC[C@H](O)C#Cc1cccc2c1/C(=C/c1[nH]ccc1OC)C(=O)N2 [U, (S)-(Z)-1,3-Dihydro-4-(3-hydroxy-1-octynyl)-3-[(3-methoxy-1H-pyrrol-2-yl)methylene]-2H-indol-2-one] |
| < 4 | COc1cc[nH]c1/C=C1\C(=O)Nc2cccc(C#CC3(O)CCCC3)c21 [AA, (Z)-1,3-Dihydro-4-[(1-hydroxycyclopentyl)ethynyl]-3-[(3-methoxy-1H-pyrrol-2-yl)methylene]-2H-indol-2-one] |
| < 4 | COC(=O)C(CC#Cc1cccc2c1/C(=C/c1[nH]ccc1OC)C(=O)N2)C(=O)OC [V, (Z)-[3-[2,3-Dihydro-3-[(3-methoxy-1H-pyrrol-2-yl)methylene]-2-oxo-1H-indol-4-yl]-2-propynyl]propanedioic acid dimethyl ester] |
| < 4 | COc1cc[nH]c1/C=C1\C(=O)Nc2cccc(C#CCCCCO)c21 [A, (Z)-1,3-Dihydro-4-(6-hydroxy-1-hexynyl)-3-[(3-methoxy-1H-pyrrol-2-yl)methylene]-2H-indol-2-one] |
| < 4 | COc1cc[nH]c1/C=C1\C(=O)Nc2cccc(C#CCO)c21 [Y, (Z)-1,3-Dihydro-4-(3-hydroxy-1-propynyl)-3-[(3-methoxy-1H-pyrrol-2-yl)methylene]-2H-indol-2-one] |
| < 4 | CCC(C)(O)C#Cc1cccc2c1/C(=C/c1[nH]ccc1OC)C(=O)N2 (racemic) [D, rac-(Z)-1,3-Dihydro-4-(3-hydroxy-3-methyl-1-pentynyl)-3-[(3-methoxy-1H-pyrrol-2-yl)methylene]-2H-indol-2-one] |
| < 4 | COc1cc[nH]c1/C=C1\C(=O)Nc2cccc(C#CC(C)(C)O)c21 [L, (Z)-1,3-Dihydro-4-(3-hydroxy-3-methyl-1-butynyl)-3-[(3-methoxy-1H-pyrrol-2-yl)methylene]-2H-indol-2-one] |
| < 4 | COc1cc[nH]c1/C=C1\C(=O)Nc2cccc(C#CCCCC(N)=O)c21 [K, (Z)-6-[2,3-Dihydro-3-[(3-methoxy-1H-pyrrol-2-yl)methylene]-2-oxo-1H-indol-4-yl]-5-hexynamide] |
| < 4 | CNCC#Cc1cccc2c1/C(=C/c1[nH]ccc1OC)C(=O)N2 [JJ, (Z)-1,3-Dihydro-3-[(3-methoxy-1H-pyrrol-2-yl)methylene]-4-[3-(N-methylamino)-1-propynyl]-2H-indol-2-one trifluoroacetate salt] |
| < 4 | COc1cc[nH]c1/C=C1\C(=O)Nc2cccc(C#CC(C)(O)CC(C)C)c21 (racemic) [O, rac-(Z)-1,3-Dihydro-4-(3,5-dimethyl-3-hydroxy-1-hexynyl)-3-[(3-methoxy-1H-pyrrol-2-yl)methylene]-2H-indol-2-one] |
| < 4 | COc1cc[nH]c1/C=C1\C(=O)Nc2cccc(C#CCCO)c21 [C, (Z)-1,3-Dihydro-4-(4-hydroxy-1-butynyl)-3-[(3-methoxy-1H-pyrrol-2-yl)methylene]-2H-indol-2-one] |

Same assay, conditions: Table IB; concentration ≤1.0 μM

| inhibition at 1 µM [%] | Structure (SMILES) |
| --- | --- |
| > 90 | COc1cc[nH]c1/C=C1\C(=O)Nc2ccc([N+](=O)[O-])c(C#CCO)c21 [Z, (Z)-1,3-Dihydro-4-(3-hydroxy-1-propynyl)-3-[(3-methoxy-1H-pyrrol-2-yl)methylene]-5-nitro-2H-indol-2-one] |
